# Measurements taken from patent US20090005384A1, “Method for Producing Adsorptive Porous Body” (Kowa Co., Ltd, priority 2005, published 2009).
# Experiments:
# [1] = Adsorption test to porous material; type: physicochemical; settings: for Amount of adsorbed Compound A: shaken for two hours
# Description: To a solution prepared by completely dissolving 1.5 mg of Compound A in 1.5 mL of dichloromethane, 15 mg of porous material (light anhydrous silicic acid (Sylysia 350, produced by Fuji Silysia Chemical Co., Ltd.) or silicon dioxide (Sylysia 530, produced by Fuji Silysia Chemical Co., Ltd.) was dispersed, and this mixture was shaken for two hours using Roter RT-50 (TAITEC) and an amount of Compound A which adsorbed simply to the light anhydrous silicic acid or silicon dioxide (μg/mg porous material) was calculated by measuring the absorbance (280 nm) of a filtrate obtained by filtering with a membrane filter (0.45 μm PTFE). The amount of Compound A which adsorbed simply to the light anhydrous silicic acid or silicon dioxide ([…] porous material) was calculated by the following computational expression.
# Concentration of Compound A in the filtrate (μg/mL)=ABS÷Slope of analytical curve×Dilution ratio
# Here, ABS represents the absorbance.
# Amount of adsorbed Compound A (g/mg porous material)=(Concentration of Compound A before the porous material was dispersed (g/mL)−Concentration of Compound A in the filtrate (g/mL))×Volume of Compound A solution (mL)÷Mass of porous material (mg)
# Calculation was also conducted using ethanol in place of dichloromethane as a comparison.
# [2] = Differential scanning calorimetry analysis; type: physicochemical; settings: when dichloromethane was used
# [3] = system: interleukin-lp production; settings: known from Patent Document 1; cited from earlier work
# [4] = cited from earlier work
structure (smiles),measurement,setting,value
"CSc1ccc(-c2nn(Cc3ccccc3)c(=O)cc2-c2ccc(Cl)cc2)cc1 [Compound A, 2-benzyl-5-(4-chlorophenyl)-6-[4-(methylthio)phenyl]-2H-pyridazin-3-one]",Amount of adsorbed Compound A,"[1]; Dichloromethane, light anhydrous silicic acid (Sylysia 350)",17.6 μg/mg porous material
same,Amount of adsorbed Compound A,"[1]; Dichloromethane, silicon dioxide (Sylysia 530)",24.8 μg/mg porous material
same,Amount of adsorbed Compound A,"[1]; Ethanol, light anhydrous silicic acid (Sylysia 350)",0.0 μg/mg porous material
same,Amount of adsorbed Compound A,"[1]; Ethanol, silicon dioxide (Sylysia 530)",0.0 μg/mg porous material
same,Adsorption of Compound A to the porous material (in words),"[1]; dichloromethane, light anhydrous silicic acid",adsorbed
same,Adsorption of Compound A to the porous material (in words),"[1]; dichloromethane, silicon dioxide",adsorbed
same,Adsorption of Compound A to the porous material (in words),"[1]; ethanol, light anhydrous silicic acid",did not adsorb
same,Adsorption of Compound A to the porous material (in words),"[1]; ethanol, silicon dioxide",did not adsorb
same,Solid state of Compound A,[2],existed in amorphous state
same,interleukin-lp production suppressive effect,[3],excellent
same,Solubility in water,[4],extremely insoluble
